Measurements: patent US8722649B2, “Alpha-chloro and alpha-bromo phosphonate analogs of lysophosphatidic acid and methods of making and using thereof” (University of Utah Research Foundation, priority 2007, dated 2014)
“Also recorded” adds a separate entry of the source.

Tests used:
human LPA5 = target: T1, human LPA5 (Homo sapiens, UniProt Q9H1C0); test: Ca2+ mobilization assay, LPA5 transiently transfected RH7777 cells; format: cell-based; conditions: for Emax at 10 µM: RH7777; for LPA5 ligand type: agonist/antagonist in words
T1 construct: expressed in transfected cells; host or cells: rat hepatoma RH7777 cells, transient (Effectene)
Procedure: Receptor activation using Ca^2+ mobilization assay for diastereomers of 1 (also represented as 19b). The rat hepatoma (RH7777) cell lines individually expressing either LPA1, LPA2, LPA3 or LPA5 receptors and Chinese hamster ovary (CHO) cell line were analyzed to examine agonism and antagonism. […] CHO cells stably expressing either vector or LPA4 were kindly gifted from Dr. Shimizu (University of Tokyo, Tokyo, Japan).
Transient transfection of LPA5. RH7777 cells in a 10-cm dish at a density of 2×10^6/dish were transfected with 2 μg of plasmid DNA with Effectene (Qiagen, Valencia, Calif.) according to the manufacturer's instructions for 24 h, then replated onto PLL-coated 96-well plates at a density of 5×10^4 cells/well and cultured overnight. The following day, the culture medium was then replaced with modified Krebs buffer, and the cells were serum starved for 4 h. Subsequently, cells were loaded with Fura-2 AM for 30 min in modified Krebs buffer containing 2% (v/v) pluronic acid.
After incubating the cells with Fura-2 AM, the cells were rinsed with Krebs buffer and changes in the intracellular Ca^2+ concentration were monitored by determining the ratio of emitted light intensities at 520 nm in response to excitation at 340 and 380 nm using FLEXstation II (Molecular Devices, Sunnyvale, Calif.). Each well was monitored for 80-120 sec. For testing agonist activity of the compounds, the test compounds were added automatically after 15 sec of baseline measurement. To determine antagonist properties, varying concentrations of the compounds were mixed with a constant concentration of LPA and responses were monitored. Each test was performed in quadruplicate. EC50, IC50, and Ki values were calculated by fitting a sigmoid function to data points with the nonlinear curve-fitting feature of KaleidaGraph (Synergy Software, Essex Junction, Vt.).

MDA-MB-231 cells [1] = test: Scratch wound healing migration assay; format: cell-based; conditions: for MDA-MB-231 cell migration in words: 10 and 40 μM, 24 h
Procedure: Inhibition of migration. MDA-MB-231 cells were plated in triplicate into six-well plates at a concentration of 3×10^5 cells per well. Approximately 48 hours later, the confluent cells were carefully scratched using sterile pipette tips. Nonadherent cells and cellular debris were removed by washing with PBS. Fresh medium with or without various concentrations of BrP-LPA 1, syn-BrP-LPA 1a, or anti-BrP-LPA 1b (1-100 μM) were added to the wounded monolayers. Cells were observed under the microscope and digitally photographed at different times. Inhibition of migration was assessed when the wound in the control was closed and quantified by using ImageJ.

MDA-MB-231 cells [2] = test: Matrigel transwell invasion assay; format: cell-based; conditions: Homo sapiens, 24 h, read-out: inhibition of MDA-MB-231 invasion through Matrigel
Procedure: Inhibition of invasion. The invasive behavior of cells was determined in vitro by using 24-well transwell inserts with an 8 μm pore size PET membrane which were coated with Matrigel basement membrane matrix. A suspension of cells (100 μL of 5×10^4) in serum-free medium with or without 10 μM syn-BrP-LPA la or anti-BrP-LPA 1b was added to triplicate inserts, and 600 μL medium supplemented with serum was used as a chemoattractant in the lower chamber. […] Ten fields of cells were counted for each well, and the mean number of cells per field was calculated. Each experiment was performed in triplicate and repeated at least twice.

MDA-MB-231 cells [3] = test: Orthotopic breast cancer xenograft; format: in vivo, nude mice; conditions: 3 mg/kg i.p., relative to control group
Procedure: Orthotopic Human Breast Cancer Models. 4-week-old female athymic nude mice (Charles River Laboratories) were anesthetized by intraperitoneal injection of ketamine (80 mg/kg) and xylazine (10 mg/kg),according to the protocol approved by the University of Utah Institutional Animal Care and Use Committee (IACUC). Then the thoracic skin was sterilized with iodine and alcohol swabs.
MDA-MB-231 were trypsinized and resuspended in 2.5% CMHA-S and 3% gelatin-DTPH (v:v=1:1). Then, one volume of 4% PEGDA solution was added to four volumes of the cell suspension, and the resulting suspension was mixed gently by vortexing. The final cell concentration was 5×10^7 cells/ml. When the cell suspension was becoming viscous (ca. 3-5 min at 20° C.), 200 uL of gel was injected subcutaneously into the fourth mammary fat pad of each mouse, using a total of six mice per group.
The assessment of chemotherapy on breast cancer. The mice were randomly divided into 4 groups, including control (physiological saline), paclitaxel, LPA antagonist (19b), and paclitaxel followed by 19b. Six mice for each cell line were necessary to get statistically significant results according to literature. The control group received physiological saline i.p. injection twice per week starting at two weeks after the cell transplantation and ending at two weeks after the treatment. The treatment groups received i.p. administration of paclitaxel (10 mg/kg/day) or 19b (10 mg/kg/day) twice per week with the same period of control group. One additional group included 2 dose of paclitaxel followed by 2 dose of 19b with the same period of control group. The treatment was received […] twice per week for 2 weeks total.
The body weight and tumor size were measured twice per week, and general clinical status of the animals was also assessed every day. Perpendicular tumor diameters were measured using a vernier scale caliper and tumor volume estimated using the formula for ellipsoid: […] (mm^3)=[width(mm)^2×length(mm)]/2. Data are expressed as median tumor areas with interquartile ranges.
Animals were euthanized at 4 weeks postinjection or once any signs of broken skin caused by the extension of tumor are found. Tumors were excised with surrounding tissues for histological evaluation. Analysis of variance was used to analyze the statistical difference on tumor growth between different groups. The results are in FIG. 8, where it is shown that the volume of the tumors is the lowest when mice were treated with paclitaxel followed by the administration of 19b.
Xenograft establishment and chemotherapy. […] The tumor sizes were measured and calculated by formula: tumor size (mm^3)=[width (mm)]^2×[length (mm)]/2. […]

[4] = transiently transfected RH7777 cells

T1 sequence (Q9H1C0 whole entry): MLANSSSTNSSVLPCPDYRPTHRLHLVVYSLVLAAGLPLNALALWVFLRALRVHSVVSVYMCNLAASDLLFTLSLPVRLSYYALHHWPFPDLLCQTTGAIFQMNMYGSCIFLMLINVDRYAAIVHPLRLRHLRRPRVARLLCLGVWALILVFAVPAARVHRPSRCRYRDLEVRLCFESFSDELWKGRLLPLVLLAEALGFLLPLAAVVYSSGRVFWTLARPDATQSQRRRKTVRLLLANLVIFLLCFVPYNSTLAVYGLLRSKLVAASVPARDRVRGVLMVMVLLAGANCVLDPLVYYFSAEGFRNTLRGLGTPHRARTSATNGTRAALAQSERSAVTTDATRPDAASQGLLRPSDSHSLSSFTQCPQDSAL

CCCCCCCCCCCCCCCC(=O)OC[C@@H](O)C[C@@H](Br)P(=O)(O)O [Compound 1a]
Emax at 10 µM (human LPA5): 64% | LPA5 ligand type (human LPA5): Partial Agonist | MDA-MB-231 cell migration in words (MDA-MB-231 cells [1]): inhibited the MDA-MB-231 cell migration | inhibition at 10 µM (MDA-MB-231 cells [2]): ~52% | tumor volume, separate diastereomers (MDA-MB-231 cells [3]): significantly decreased the tumor volume; also recorded: reduces tumor size

CCCCCCCCCCCCCCCC(=O)OC[C@@H](O)CC(Br)P(=O)(O)O (mixture of isomers) [Compound 1, [1-Bromo-3(S)-hydroxyl-4-(palmitoyloxy)butyl]-phosphonate]
Emax at 10 µM (human LPA5): 54% | EC50 (human LPA5; transiently transfected RH7777 cells, NS = non-saturated): 1280 nM

CCCCCCCCCCCCCCCC(=O)OC[C@@H](O)C[C@H](Br)P(=O)(O)O [Compound 1b]
LPA5 ligand type (human LPA5): showed inhibition of LPA5; also recorded: Antagonist | IC50 (human LPA5; [4]): 977 nM | Ki (human LPA5; [4]): 376 nM | decrease of MDA-MB-231 cell migration (MDA-MB-231 cells [1]; 40 μM, compared to control, scratch wound): 57% | MDA-MB-231 cell migration in words (MDA-MB-231 cells [1]): inhibited the MDA-MB-231 cell migration | inhibition at 10 µM (MDA-MB-231 cells [2]): ~52% | tumor volume, separate diastereomers (MDA-MB-231 cells [3]): significantly decreased the tumor volume; also recorded: reduces tumor size
